Reference: patent EP0903346A1, “SYDNONE IMINE DERIVATIVES” (Chugai Seiyaku Kabushiki Kaisha, priority 1995, dated 1997)

Columns and labels:
[1] = test system: anesthetized rat; assay: Blood pressure-lowering effect in anesthetized rat; type: in vivo; conditions: duodenal administration; for Blood pressure-lowering effect ED30: dose causing a decrease in the blood pressure by 30%; for Blood pressure-lowering effect Half duration: half duration at ED30 (recovery to 50% of the maximum decrease in blood pressure)
Experimental: Male Sprague Dawley rats weighing 280 to 450 g were anesthetized with sodium pentobarbital (50 mg/kg, i.p.) and fixed in the supine position. A canula was inserted into the trachea of each animal. Then the blood pressure of the animal was measured (AP-621G, Nippon Kohden Corp.) through a polyethylene tube (PE50) inserted into the right femoral artery via a pressure transducer (Life Kit DTS, DX-300, Nippon Kohden Corp.) and the heart rate was determined from the pulse wave (AT-610G, Nippon Kohden Corp.). A canula (PE10) for injecting the maintenance anesthetic drug (sodium pentobarbital 20 mg/kg/h) was inserted into the right femoral vein. The abdominal region was medianly sectioned and a canula (PE50 connected to a injection needle 23G) for duodenal drug administration was inserted thereinto and fixed with Aronalpha for surgical use. After 60-90 minutes of recovery period, the drug was administered into duodenum. After administering the drug, the blood pressure was measured until the average blood pressure returned to the level before the administration.
As the indication of the blood pressure-lowering effect of each drug, the dose causing a decrease in the blood pressure by 30%, based on the level before the administration, was calculated from the dose-response curve and employed as the 30% effective dose (ED30). Moreover, the time required for the recovery to the level corresponding to 50% of the maximum decrease in the blood pressure (half duration) was measured at each dose. Then the half duration at the above-mentioned ED30 was calculated and employed as the indication of the lasting time of the blood pressure-lowering effect (half duration at ED30).
As the test compounds, use was made of the compounds of the present invention obtained in the above Examples. Table C summarizes the results. Table C

[2] = test system: isolated rat aorta; assay: Test with the use of isolated rat aorta (relaxation of potassium chloride contraction); conditions: relaxation of continuous contraction due to 30 mM potassium chloride, thoracic aorta of male Sprague Dawley rats, read-out: Rat aorta IC50
Experimental: The thoracic aorta was taken out from male Sprague Dawley rats weighing 450 to 600 g and cut into circular samples of 2 mm in width. […] The contraction reactions of the samples were isometrically recorded with FD pick-up. After 1 to 1.5 hours of equilibration, 30 mM potassium chloride was added to contract the tissue. […] As the test compounds, the invention compounds obtained in the above Examples were employed.

IC50 [2] | Compound | Blood pressure-lowering effect ED30 [1] | Blood pressure-lowering effect Half duration [1]
– | 3-(4-Benzylpiperazin-1-yl)-N-((3,4,5-trimethoxyphenyl)acetyl)sydnonimine [Example 17] | 1.4 mg/kg | 21 min
23 nM | C[C@H](CSC(=O)c1ccccc1)C(=O)[N-]c1c[n+](N2CCOCC2)no1 [Example 4, N-((S)-3-(Benzoylthio)isobutyryl)-3-morpholinosydnonimine] | – | –
570 nM | C[C@H](CSC(=O)c1ccccc1)C(=O)[N-]c1c[n+](N(C)C)no1 [Example 5, N-((S)-3-(Benzoylthio)isobutyryl)-3-dimethylaminosydnonimine] | – | –
160 nM | COc1ccccc1N1CCN([n+]2cc([N-]C(=O)[C@H](C)CSC(=O)c3ccccc3)on2)CC1 [Example 11, N-((S)-3-(Benzoylthio)isobutyryl)-3-(4-(2-methoxyphenyl)piperazin-1-yl)sydnonimine] | – | –
550 nM | CC1CCCC(C)N1[n+]1cc([N-]C(=O)CSc2cc(C(C)(C)C)c(O)c(C(C)(C)C)c2)on1 (stereo not shown) [Example 13, N-((3,5-Di-t-butyl-4-hydroxyphenylthio)acetyl)-3-(2,6-dimethylpiperidin-1-yl)sydnonimine] | – | –
56 nM | CC1CCCC(C)N1[n+]1cc([N-]C(=O)CSC(=O)c2ccccc2)on1 (stereo not shown) [Example 16, N-((Benzoylthio)acetyl)-3-(2,6-dimethylpiperidin-1-yl)sydnonimine] | – | –
– | C[C@H](CSC(=O)c1ccccc1)C(=O)[N-]c1c[n+](N2CCN(Cc3ccccc3)CC2)no1 [Example 18, N-((S)-3-(Benzoylthio)isobutyryl)-3-(4-benzylpiperazin-1-yl)sydnonimine] | 2.0 mg/kg | 62 min
– | COc1cc(CC(=O)[N-]c2c[n+](N3CCN(C)CC3)no2)cc(OC)c1OC [Example 42, N-((3,4,5-Trimethoxyphenyl)acetyl)-3-(4-methylpiperazin-1-yl)sydnonimine] | 4.0 mg/kg | 60 min
– | C[C@H](CSC(=O)c1ccccc1)C(=O)[N-]c1c[n+](N2CCN(CC(F)(F)F)CC2)no1 [Example 70, N-((S)-3-(Benzoylthio)isobutyryl)-3-(4-(2,2,2-trifluoroethyl)piperazin-1-yl)sydnonimine] | 0.7 mg/kg | 41 min
– | C[C@H](CSC(=O)c1ccccc1)C(=O)[N-]c1c[n+](N2CCN(C3CCCC3)CC2)no1 [Example 72, N-((S)-3-(Benzoylthio)isobutyryl)-3-(4-cyclopentylpiperazin-1-yl)sydnonimine] | 1.3 mg/kg | 47 min
– | CC(=O)SC[C@@H](C)C(=O)[N-]c1c[n+](N2CCN(C)CC2)no1 [Example 78, N-((S)-3-(Acetylthio)isobutyryl)-3-(4-methylpiperazin-1-yl)sydnonimine] | 1.0 mg/kg | 40 min
– | CC(=O)SC[C@@H](C)C(=O)[N-]c1c[n+](N2CCN(C(C)C)CC2)no1 [Example 80, N-((S)-3-(Acetylthio)isobutyryl)-3-(4-isopropylpiperazin-1-yl)sydnonimine] | 0.6 mg/kg | 49 min
– | CCN1CCN([n+]2cc([N-]C(=O)CSC(C)=O)on2)CC1 [Example 85, N-(Acetylthioacetyl)-3-(4-ethylpiperazin-1-yl)sydnonimine] | 0.3 mg/kg | 44 min
– | CC(=O)SCCC(=O)[N-]c1c[n+](N2CCN(Cc3ccccc3)CC2)no1 [Example 119, N-(3-(Acetylthio)propionyl)-3-(4-benzylpiperazin-1-yl)sydnonimine] | 1.2 mg/kg | 49 min
– | CCN1CCN([n+]2cc([N-]C(=O)CCSC(C)=O)on2)CC1 [Example 122, N-(3-(Acetylthio)propionyl)-3-(4-ethylpiperazin-1-yl)sydnonimine] | 0.6 mg/kg | 48 min
– | CC(C)N1CCN([n+]2cc([N-]C(=O)CCSC(=O)c3ccccc3)on2)CC1 [Example 129, N-(3-(Benzoylthio)propionyl)-3-(4-isopropylpiperazin-1-yl)sydnonimine] | 1.3 mg/kg | 42 min
– | Cc1cccc(C)c1C(=O)SCC(=O)[N-]c1c[n+](N2CCN(C)CC2)no1 [Example 132, N-((2,6-Dimethylbenzoylthio)acetyl)-3-(4-methylpiperazin-1-yl)sydnonimine] | 0.7 mg/kg | 44 min
– | CC(C)N1CCN([n+]2cc([N-]C(=O)CCSC(=O)c3ccc(F)cc3)on2)CC1 [Example 137, N-(3-(4-Fluorobenzoylthio)propionyl)-3-(4-isopropylpiperazin-1-yl)sydnonimine] | 0.6 mg/kg | 46 min
– | Cc1cccc(C)c1C(=O)SCCC(=O)[N-]c1c[n+](N2CCN(C)CC2)no1 [Example 141, N-(3-(2,6-Dimethylbenzoylthio)propionyl)-3-(4-methylpiperazin-1-yl)sydnonimine] | 0.5 mg/kg | 48 min
– | CCN1CCN([n+]2cc([N-]C(=O)CCSC(=O)c3c(F)cccc3F)on2)CC1 [Example 146, N-(3-(2,6-Difluorobenzoylthio)propionyl)-3-(4-ethylpiperazin-1-yl)sydnonimine] | 0.6 mg/kg | 45 min
– | CCN1CCN([n+]2cc([N-]C(=O)CCSC(=O)C(C)(C)C)on2)CC1 [Example 155, N-(3-(Pivaloylthio)propionyl)-3-(4-ethylpiperazin-1-yl)sydnonimine] | 0.2 mg/kg | 46 min
– | CCNC(=O)SCCC(=O)[N-]c1c[n+](N2CCN(CC)CC2)no1 [Example 163, N-(3-(Ethylcarbamoylthio)propionyl)-3-(4-ethylpiperazin-1-yl)sydnonimine] | 0.2 mg/kg | 44 min
– | CN1CCN([n+]2cc([N-]C(=O)CCSC(=O)Nc3ccccc3)on2)CC1 [Example 171, N-(3-(Phenylcarbamoylthio)propionyl)-3-(4-methylpiperazin-1-yl)sydnonimine] | 0.3 mg/kg | 45 min
– | CN1CCN([n+]2cc([N-]C(=O)CCCSC(=O)c3ccccc3)on2)CC1 [Example 174, N-(4-(Benzoylthio)butyryl)-3-(4-methylpiperazin-1-yl)sydnonimine] | 0.5 mg/kg | 43 min
– | CN1CCN([n+]2cc([N-]C(=O)CCSc3cc(C(C)(C)C)c(O)c(C(C)(C)C)c3)on2)CC1 [Example 179, N-(3-(3,5-Di-t-butyl-4-hydroxyphenylthio)propionyl)-3-(4-methylpiperazin-1-yl)sydnonimine] | 0.9 mg/kg | 43 min
– | CC(=O)N[C@@H](CSC(C)=O)C(=O)[N-]c1c[n+](N2CCN(C)CC2)no1 [Example 181, N-((R)-2-Acetylamino-3-(acetylthio)propionyl)-3-(4-methylpiperazin-1-yl)sydnonimine] | 0.8 mg/kg | 60 min
– | CC(=O)N[C@@H](CSC(C)=O)C(=O)[N-]c1c[n+](N2CCN(C(C)C)CC2)no1 [Example 183, N-((R)-2-Acetylamino-3-(acetylthio)propionyl)-3-(4-isopropylpiperazin-1-yl)sydnonimine] | 1.0 mg/kg | 47 min
– | CC(=O)N[C@@H](CSC(=O)c1ccc(F)cc1)C(=O)[N-]c1c[n+](N2CCN(C)CC2)no1 [Example 185, N-((R)-2-Acetylamino-3-(4-fluorobenzoylthio)propionyl)-3-(4-methylpiperazin-1-yl)sydnonimine] | 1.5 mg/kg | 53 min
– | Cc1c(C)c2c(c(C)c1O)CCC(C)(C(=O)SCC(=O)[N-]c1c[n+](N3CCN(C)CC3)no1)O2 (stereo not shown) [Example 191, N-((6-Hydroxy-2,5,7,8-tetramethylchroman-2-carbonylthio)acetyl)-3-(4-methylpiperazin-1-yl)sydnonimine] | 1.0 mg/kg | 58 min
– | CCOC(=O)[N-]c1cn(N2CCOCC2)n[o+]1 [molsidomine, reference compound] | 0.3 mg/kg | 39 min
